Measured values from publication PMC11767451, “Novel Approaches to Monitor Pharmacokinetics and Metabolism of Gemcitabine-Ibandronate Conjugate in Mice and Dogs” (Molecules, 2025).

Legend:
[1] = Stability in mouse plasma (accelerated, freeze-thaw, frozen PK samples); type: in vitro ADME; details: for %-ACC (% accuracy vs nominal): 3 freeze-thaw cycles (<−70 °C / bench); for %-ACC, frozen PK sample stability: mouse plasma PK samples re-extracted after 1.5 years at <−70 °C
Protocol: (§1) For stability testing, QC samples were prepared by spiking plasma with QC stock solutions. These stability samples were stored for the predetermined time periods before extraction (accelerated stability and freeze–thaw stability) or after extraction (autosampler stability) and were run with freshly prepared calibrator standards. For accelerated stability, samples were stored at 4 °C and at room temperature for 4 h and 24 h prior to sample extraction. […] Assay A compounds (GEM-IB and IB) were also tested at 1 h and 2 h exposed to 4 °C and at room temperature to evaluate for which duration GEM-IB is stable.
(§2) Freeze–thaw cycle stability was assessed by storing the stability samples overnight in the freezer (<−70 °C) and thawing them the next day on the bench. Once thawed, samples were placed back into the freezer. This was carried out for three freeze–thaw cycles for all compounds.
(§3) To assess the stability of study samples, PK samples were re-extracted after storage at <−70 °C for 1.5 years (see Supplementary Table S4).
(§4) Method development and validation was conducted following applicable FDA guidelines for bioanalytical assays, as considered fit for purpose. Specificity. Endogenous interferences were excluded by analysis of blank plasma from 6 different individual lots of plasma. The lower limit of quantification (LLOQ) was determined as the lowest concentration consistently achieving an accuracy better than ±20% of the nominal concentration, with imprecision ≤20%. Predefined acceptance criteria. The performance of the assay was considered acceptable if intra- and inter-day imprecision (coefficient of variance, %CV) at each concentration was ≤15%, except at the LLOQ (≤20%). Intra- and inter-day accuracy had to be ±15% of the nominal value, except at the LLOQ (±20%). Calibration curves had to have a correlation coefficient (r) of 0.99 or better. Analytical recovery and imprecision. Intra- and inter-day analytical accuracy and imprecision were tested at least at four concentration levels depending on the LLOQ for each compound. Intra-day imprecision and accuracy were determined with n = 6 per QC level. Inter-day imprecision and accuracy were measured over 3 days, with six replicates for each QC concentration (n = 18). Extraction efficiency and matrix effect. Extraction efficiency for GEM-IB and metabolites was established by comparing the signals of the analytes after the extraction of QCs (n = 6/concentrations), with the signals of the extracted blank matrix spiked with the respective concentrations of analytes after the extraction procedure. The matrix effect was determined by comparing the analyte LC-MS/MS signal after spiking of the analyte into the extracted blank matrix (matrix from 6 different individual lots, analyte concentrations as for the QC samples) with the HPLC-MS/MS signal of the same amount of analyte in neat solution [25]. Carry-over. Carry-over was assessed by injecting blank buffer samples after analysis of the highest calibrators. Carry-over was considered insignificant if there was no signal at the relevant retention times exceeding 20% of the analyte signals at the LLOQ. Stability. QC samples were freshly prepared. One set was extracted and was analyzed immediately to determine baseline signals.

[2] = Stability in dog plasma (accelerated, freeze-thaw, frozen PK samples); type: in vitro ADME; details: for %-ACC (% accuracy vs nominal): 3 freeze-thaw cycles (<−70 °C / bench); for %-ACC, frozen PK sample stability: dog plasma PK samples re-extracted after 1.5 years at <−70 °C
Protocol: as §1, §2, §3, §4

[3] = Autosampler stability of extracted dog plasma samples at 4 °C; type: physicochemical
Protocol: The stability of extracted dog and mouse plasma samples in the autosampler at 4 °C was established for 24 and 48 h. Except for GEM-IB, in mouse and dog plasma extracts, all analytes were within ±20% of the nominal enriched concentration for up to 48 h in the autosampler. GEM-IB was stable for up to 24 h under these conditions.
as §4, with “signals. Analyte stability in plasma was evaluated at two QC concentration levels (n = 3/concentration level) under different conditions: 1, 2, and 24 h at room temperature and at 4 °C. In addition, stability after extraction was determined after 24 h and 48 h at 4 °C in the autosampler and for up to 3 freeze (−70 °C)–thaw (ambient) cycles. Stability was assessed by comparing analyte concentrations with baseline (t0) concentrations. Stability was assumed when the results were within ±20% of the baseline concentrations. Long-term stability estimates were performed by re-extraction of samples used during the PK study (n = 6). Samples were initially analyzed for the PK assessment and were stored for 1.5 years (GEM-IB and IB) and 2.5 years (GEM, GEMMP, dFdU, and dFdU-MP) at <−70 °C prior to reanalysis. Stability was assessed by comparing analyte concentrations with the initial assessments. Stability was acceptable when the results were within ±20% of the baseline concentrations and the percent standard deviation (%-SD) was below 25%.” for “signals.”

[4] = Stability in mouse plasma (accelerated, freeze-thaw, frozen PK samples); type: in vitro ADME; details: mouse plasma PK samples re-extracted after 2.5 years at <−70 °C
[5] = Stability in dog plasma (accelerated, freeze-thaw, frozen PK samples); type: in vitro ADME; details: dog plasma PK samples re-extracted after 2.5 years at <−70 °C

%-ACC (% accuracy vs nominal) ([1]; mouse plasma) [%]	%-ACC (percent mean accuracy vs nominal) ([1]; mouse plasma, 24 hours 4°C) [%]	%-ACC (percent mean accuracy vs nominal) ([1]; mouse plasma, 24 hours RT) [%]	%-ACC (% accuracy vs nominal) ([2]; dog plasma) [%]	%-ACC (percent mean accuracy vs nominal) ([2]; dog plasma, 24 hours 4°C) [%]	%-ACC (percent mean accuracy vs nominal) ([2]; dog plasma, 24 hours RT) [%]	%-ACC (% accuracy vs nominal) ([3]; 24 hours autosampler 4 °C) [%]	%-ACC (% accuracy vs nominal) ([3]; 48 hours autosampler 4 °C) [%]	%-ACC, frozen PK sample stability [1]	%-ACC (percent mean accuracy vs nominal) ([1]; mouse plasma, 4 hours 4°C) [%]	%-ACC (percent mean accuracy vs nominal) ([1]; mouse plasma, 4 hours RT) [%]	%-ACC, frozen PK sample stability [2]	%-ACC (percent mean accuracy vs nominal) ([2]; dog plasma, 4 hours 4°C) [%]	%-ACC (percent mean accuracy vs nominal) ([2]; dog plasma, 4 hours RT) [%]	%-ACC, frozen PK sample stability [4] [%]	%-ACC, frozen PK sample stability [5] [%]	further results	Compound
16.9	2.9	0.0	84.7	83.6	13.7	86.2	63.4									percent of the nominal concentration ([1]; mouse plasma, 1 h on ice): 89.2% ± 7.0; %-ACC (percent mean accuracy vs nominal) ([1]; mouse plasma, 2 hours 4°C / on ice (IB and GEM-IB, footnote)): 64.2%; %-ACC (percent mean accuracy vs nominal) ([1]; mouse plasma, 2 hours RT (IB and GEM-IB, footnote)): 31.0%; time stable on ice ([1]; mouse plasma, on ice): up to 1 h; %-ACC (percent mean accuracy vs nominal) ([2]; dog plasma, 2 hours 4°C (IB and GEM-IB, footnote)): 99.3%; %-ACC (percent mean accuracy vs nominal) ([2]; dog plasma, 2 hours RT (IB and GEM-IB, footnote)): 83.5%; time stable on ice ([2]; dog plasma, on ice): up to 24 h	CCCCCN(C)CCC(O)(P(=O)(O)O)P(=O)(O)OP(=O)(O)OC[C@H]1O[C@@H](n2ccc(N)nc2=O)C(F)(F)[C@@H]1O (some centres unmarked) [GEM-IB]
92.4	91.4	88.1	92.4	88.1	98.2	92.4	90.0	failed the criteria	91.9	87.9	failed the criteria	89.5	98.2	64.0	58.1		Nc1ccn([C@@H]2O[C@H](COP(=O)(O)O)[C@@H](O)C2(F)F)c(=O)n1 [GEMMP, gemcitabine-5′-phosphate]
87.7	81.9	81.5	87.7	85.2	80.5	92.6	84.8	failed the criteria	83.0	80.5	failed the criteria	84.2	86.7	108.1	49.3		O=c1ccn([C@@H]2O[C@H](COP(=O)(O)O)[C@@H](O)C2(F)F)c(=O)[nH]1 [dFdUMP, 2′,2′-difluoro-2′-deoxyuridine-5′-phosphate]
